Data reported in patent US20220162191A1, “SMALL MOLECULE MODULATORS OF IL-17” (LEO PHARMA A/S, priority 2019, published 2022).

What follows are molecules tested against T1, human IL-17AA (Homo sapiens, UniProt Q16552) (assay: IL-8 release assay in human epithelial keratinocytes adult (HEKa)). Conditions: 3 ng/ml human IL-17AA + 10 ng/ml human TNFalpha, 68-72 h, IL-8 by HTRF, read-out: Rel EC50 L-8 release assay.
T1 construct: host or cells: HEK (human embryonic kidney) cells
T1 sequence (Q16552 24-155) 1: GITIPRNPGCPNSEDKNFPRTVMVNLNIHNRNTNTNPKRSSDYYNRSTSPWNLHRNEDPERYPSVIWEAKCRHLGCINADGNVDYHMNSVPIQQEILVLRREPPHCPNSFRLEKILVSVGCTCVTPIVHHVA
T1 sequence (Q16552 24-155) 2: T1 sequence (Q16552 24-155) 1
Type: cell-based
How it was run: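 IL-8 secretion, quantified by HTRF (665/620 nm) as percent of controls, served as the readout after 68–72 h culture of HEKa cells with compound plus IL-17AA (3 ng/ml final) and TNF-alpha (10 ng/ml final). Four-parameter logistic curves gave relative IC50 and Emax.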
Molecule `CN(C)Cc1cc(-c2ccc(Cl)c(CC(NC(=O)c3ccnn3C)C(=O)Nc3ccc(-c4nncn4C)cc3)c2)ccc1O` (stereo not drawn) [Example 139, N-[1-[[2-chloro-5-[3-(dimethylaminomethyl)-4-hydroxy-phenyl]phenyl]methyl]-2-[4-(4-methyl-1,2,4-triazol-3-yl)anilino]-2-oxo-ethyl]-2-methyl-pyrazole-3-carboxamide] has an EC50 of over 1000 nM. `Cn1cncc1-c1ccc(NC(=O)[C@H](Cc2cc(-c3ccnc(C(O)C4CC4)c3)ccc2Cl)NC(=O)c2ccnn2C)cc1` (stereo partly drawn) [Example 140, N-[(1S)-1-[[2-chloro-5-[2-[cyclopropyl(hydroxy)methyl]-4-pyridyl]phenyl]methyl]-2-[4-(3-methylimidazol-4-yl)anilino]-2-oxo-ethyl]-2-methyl-pyrazole-3-carboxamide] gave an EC50 of 100 to 1000 nM. Work on `Cn1cncc1-c1ccc(NC(=O)[C@H](Cc2cc(-c3ccnc(C(C)(O)C4CC4)c3)ccc2Cl)NC(=O)c2ccnn2C)cc1` (stereo partly drawn) [Example 141, N-[(1S)-1-[[2-chloro-5-[2-(1-cyclopropyl-1-hydroxy-ethyl)-4-pyridyl]phenyl]methyl]-2-[4-(3-methylimidazol-4-yl)anilino]-2-oxo-ethyl]-2-methyl-pyrazole-3-carboxamide] yielded an EC50 of under 100 nM. `Cn1cncc1-c1ccc(NC(=O)[C@H](Cc2cc(-c3ccnc(C(C)(O)C4CC4)c3)ccc2Cl)NC(=O)C2(F)CC2)cc1` (stereo partly drawn) [Example 142, N-[(1S)-1-[[2-chloro-5-[2-(1-cyclopropyl-1-hydroxy-ethyl)-4-pyridyl]phenyl]methyl]-2-[4-(3-methylimidazol-4-yl)anilino]-2-oxo-ethyl]-1-fluoro-cyclopropanecarboxamide] showed an EC50 of under 100 nM. `Cc1ncn(C)c1-c1ccc(NC(=O)[C@H](Cc2cc(-c3ccc(=O)n(C(C)C)c3)ccc2Cl)NC(=O)c2ccnn2C)cc1` [Example 143, N-[(1S)-1-[[2-chloro-5-(1-isopropyl-6-oxo-3-pyridyl)phenyl]methyl]-2-[4-(3,5-dimethylimidazol-4-yl)anilino]-2-oxo-ethyl]-2-methyl-pyrazole-3-carboxamide] was tested, and the EC50 was 100 to 1000 nM. `Cn1cnnc1-c1ccc(NC(=O)C(Cc2cc(-c3cccc(C4(O)CCC4)c3)ccc2Cl)NC(=O)c2ccnn2C)cc1` (stereo not drawn) [Example 144, N-[1-[[2-chloro-5-[3-(1-hydroxycyclobutyl)phenyl]phenyl]methyl]-2-[4-(4-methyl-1,2,4-triazol-3-yl)anilino]-2-oxo-ethyl]-2-methyl-pyrazole-3-carboxamide] was tested, and the EC50 was 100 to 1000 nM. Molecule `Cn1cnnc1-c1ccc(NC(=O)C(Cc2cc(-c3cccc(OC4CCC4)c3)ccc2Cl)NC(=O)c2ccnn2C)cc1` (stereo not drawn) [Example 145, N-[1-[[2-chloro-5-[3-(cyclobutoxy)phenyl]phenyl]methyl]-2-[4-(4-methyl-1,2,4-triazol-3-yl)anilino]-2-oxo-ethyl]-2-methyl-pyrazole-3-carboxamide] has an EC50 of 100 to 1000 nM. `Cn1cncc1-c1ccc(NC(=O)C(Cc2cc(-c3ccnc(N4CCCC4)c3)ccc2Cl)NC(=O)c2ccnn2C)cc1` (stereo not drawn) [Example 146, N-[1-[[2-chloro-5-(2-pyrrolidin-1-yl-4-pyridyl)phenyl]methyl]-2-[4-(3-methylimidazol-4-yl)anilino]-2-oxo-ethyl]-2-methyl-pyrazole-3-carboxamide] gave an EC50 of 100 to 1000 nM. Work on `CC(C)n1cc(-c2ccc(Cl)c(C[C@H](NC(=O)C3(F)CCC3)C(=O)Nc3ccc(-c4cncn4C)cc3)c2)ccc1=O` [Example 147, N-[(1S)-1-[[2-chloro-5-(1-isopropyl-6-oxo-3-pyridyl)phenyl]methyl]-2-[4-(3-methylimidazol-4-yl)anilino]-2-oxo-ethyl]-1-fluoro-cyclobutanecarboxamide] yielded an EC50 of 100 to 1000 nM. `CC(C)n1cc(-c2ccc(Cl)c(C[C@H](NC(=O)C3(F)CCC3)C(=O)Nc3ccc(-c4nncn4C)cc3)c2)ccc1=O` [Example 148, N-[(1S)-1-[[2-chloro-5-(1-isopropyl-6-oxo-3-pyridyl)phenyl]methyl]-2-[4-(4-methyl-1,2,4-triazol-3-yl)anilino]-2-oxo-ethyl]-1-fluoro-cyclobutanecarboxamide] showed an EC50 of over 1000 nM. For `Cn1cncc1-c1ccc(NC(=O)C(Cc2cc(-c3ccnc(N4CCC4)c3)ccc2Cl)NC(=O)c2ccnn2C)cc1` (stereo not drawn) [Example 149, N-[1-[[5-[2-(azetidin-1-yl)-4-pyridyl]-2-chloro-phenyl]methyl]-2-[4-(3-methylimidazol-4-yl)anilino]-2-oxo-ethyl]-2-methyl-pyrazole-3-carboxamide], the EC50 was 100 to 1000 nM. Work on `CN(c1cc(-c2ccc(Cl)c(CC(NC(=O)c3ccnn3C)C(=O)Nc3ccc(-c4cncn4C)cc3)c2)ccn1)C1CC1` (stereo not drawn) [Example 150, N-[1-[[2-chloro-5-[2-[cyclopropyl(methyl)amino]-4-pyridyl]phenyl]methyl]-2-[4-(3-methylimidazol-4-yl)anilino]-2-oxo-ethyl]-2-methyl-pyrazole-3-carboxamide] yielded an EC50 of under 100 nM. Work on `Cn1cncc1-c1ccc(NC(=O)C(Cc2cc(-c3ccnc(OCC(F)(F)F)c3)ccc2Cl)NC(=O)c2ccnn2C)cc1` (stereo not drawn) [Example 152, N-[1-[[2-chloro-5-[2-(2,2,2-trifluoroethoxy)-4-pyridyl]phenyl]methyl]-2-[4-(3-methylimidazol-4-yl)anilino]-2-oxo-ethyl]-2-methyl-pyrazole-3-carboxamide] yielded an EC50 of 100 to 1000 nM. `CN(CC1CC1)c1cc(-c2ccc(Cl)c(CC(NC(=O)c3ccnn3C)C(=O)Nc3ccc(-c4cncn4C)cc3)c2)ccn1` (stereo not drawn) [Example 153, N-[1-[[2-chloro-5-[2-[cyclopropylmethyl(methyl)amino]-4-pyridyl]phenyl]methyl]-2-[4-(3-methylimidazol-4-yl)anilino]-2-oxo-ethyl]-2-methyl-pyrazole-3-carboxamide] was tested, and the EC50 was under 100 nM. In the case of `CC(C)n1cc(-c2ccc(Cl)c(C[C@H](NC(=O)C3CC3(C)C)C(=O)Nc3ccc(-c4nncn4C)cc3)c2)ccc1=O` (stereo partly drawn) [Example 154, N-[(1S)-1-[[2-chloro-5-(1-isopropyl-6-oxo-3-pyridyl)phenyl]methyl]-2-[4-(4-methyl-1,2,4-triazol-3-yl)anilino]-2-oxo-ethyl]-2,2-dimethyl-cyclopropanecarboxamide], the EC50 is reported as over 1000 nM. For `COCOc1ccc(-c2ccc(Cl)c(CC(NC(=O)c3ccnn3C)C(=O)Nc3ccc(-c4nncn4C)cc3)c2)cc1C(=O)N(C)C` (stereo not drawn) [Example 155, N-[1-[[2-chloro-5-[3-(dimethylcarbamoyl)-4-(methoxymethoxy)phenyl]phenyl]methyl]-2-[4-(4-methyl-1,2,4-triazol-3-yl)anilino]-2-oxo-ethyl]-2-methyl-pyrazole-3-carboxamide], the EC50 was over 1000 nM. With `COCOc1ccc(-c2ccc(Cl)c(CC(NC(=O)c3ccnn3C)C(=O)Nc3ccc(-c4nncn4C)cc3)c2)cc1C(=O)N1CCC1` (stereo not drawn) [Example 156, N-[1-[[5-[3-(azetidine-1-carbonyl)-4-(methoxymethoxy)phenyl]-2-chloro-phenyl]methyl]-2-[4-(4-methyl-1,2,4-triazol-3-yl)anilino]-2-oxo-ethyl]-2-methyl-pyrazole-3-carboxamide] the EC50 was over 1000 nM. With `Cn1cnnc1-c1ccc(NC(=O)C(Cc2cc(-c3ccc(O)c(CN4CCNCC4)c3)ccc2Cl)NC(=O)c2ccnn2C)cc1` (stereo not drawn) [Example 157, N-[1-[[2-chloro-5-[4-hydroxy-3-(piperazin-1-ylmethyl)phenyl]phenyl]methyl]-2-[4-(4-methyl-1,2,4-triazol-3-yl)anilino]-2-oxo-ethyl]-2-methyl-pyrazole-3-carboxamide] the EC50 was 100 to 1000 nM. Work on `Cn1cncc1-c1ccc(NC(=O)C(Cc2cc(-c3ccnc(OC4CCC4)c3)ccc2Cl)NC(=O)c2ccnn2C)cc1` (stereo not drawn) [Example 158, N-[1-[[2-chloro-5-[2-(cyclobutoxy)-4-pyridyl]phenyl]methyl]-2-[4-(3-methylimidazol-4-yl)anilino]-2-oxo-ethyl]-2-methyl-pyrazole-3-carboxamide] yielded an EC50 of 100 to 1000 nM. With `CC(C)N(C)c1cc(-c2ccc(Cl)c(CC(NC(=O)c3ccnn3C)C(=O)Nc3ccc(-c4cncn4C)cc3)c2)ccn1` (stereo not drawn) [Example 159, N-[1-[[2-chloro-5-[2-[isopropyl(methyl)amino]-4-pyridyl]phenyl]methyl]-2-[4-(3-methylimidazol-4-yl)anilino]-2-oxo-ethyl]-2-methyl-pyrazole-3-carboxamide] the EC50 was under 100 nM. In the case of `Cn1cncc1-c1ccc(NC(=O)C(Cc2cc(-c3ccnc(N4CCCCC4)c3)ccc2Cl)NC(=O)c2ccnn2C)cc1` (stereo not drawn) [Example 160, N-[1-[[2-chloro-5-[2-(1-piperidyl)-4-pyridyl]phenyl]methyl]-2-[4-(3-methylimidazol-4-yl)anilino]-2-oxo-ethyl]-2-methyl-pyrazole-3-carboxamide], the EC50 is reported as 100 to 1000 nM. `Cn1cncc1-c1ccc(NC(=O)C(Cc2cc(-c3ccnc(OC(F)F)c3)ccc2Cl)NC(=O)c2ccnn2C)cc1` (stereo not drawn) [Example 161, N-[1-[[2-chloro-5-[2-(difluoromethoxy)-4-pyridyl]phenyl]methyl]-2-[4-(3-methylimidazol-4-yl)anilino]-2-oxo-ethyl]-2-methyl-pyrazole-3-carboxamide] gave an EC50 of 100 to 1000 nM. For `CN(C)c1cc(-c2ccc(Cl)c(CC(NC(=O)c3ccnn3C)C(=O)Nc3ccc(-c4cncn4C)cc3)c2)ccn1` (stereo not drawn) [Example 162, N-[1-[[2-chloro-5-[2-(dimethylamino)-4-pyridyl]phenyl]methyl]-2-[4-(3-methylimidazol-4-yl)anilino]-2-oxo-ethyl]-2-methyl-pyrazole-3-carboxamide], the EC50 was 100 to 1000 nM. `CC(C)n1cc(-c2ccc(Cl)c(CC(NC(=O)c3ccnn3C)C(=O)Nc3ccc(-c4nncn4C)cc3)c2)cc(C(F)(F)F)c1=O` (stereo not drawn) [Example 163, N-[1-[[2-chloro-5-[1-isopropyl-6-oxo-5-(trifluoromethyl)-3-pyridyl]phenyl]methyl]-2-[4-(4-methyl-1,2,4-triazol-3-yl)anilino]-2-oxo-ethyl]-2-methyl-pyrazole-3-carboxamide] gave an EC50 of over 1000 nM.
